In publication PMC11674305, “Inhibition of Neural Crest Cell Migration by Strobilurin Fungicides and Other Mitochondrial Toxicants” (Cells, 2024):

What was measured:
neural crest cells (NCC) = test: cMINC (UKN2) assay: circular migration of neural crest cells, with viability; format: cell-based, human; details: for Ratio: migration/cytotoxicity ratio, hit requires ≥ 1.3, HTC used where no viability effect
Procedure: The research group initially developed the first version of the test in 2012 [40]. The test has been further improved and characterized. To perform the cMINC assay, NCCs were thawed in N2-S Medium and seeded on the day of migration-1 (DoM-1) on a 96-well polystyrene plate (Corning, Glendale, AZ, USA) around stoppers, to create a cell-free area of 2 mm diameter (Platypus Technologies, Madison, WI, USA). The cells were resuspended in N2-S Medium supplemented with […] of the cytokines EGF and FGF, and then counted and seeded around the stoppers at a density of 95,000 cells/cm^2. After 24 h, the stoppers were removed, and the medium was exchanged. The removal of the stoppers initiates migration of the NCCs into the cell-free area. For the treatment, the 5x-concentrated toxicant solution was added to the medium 24 h after stopper removal.
On day 2, cells were stained with 533 nM calcein-AM and 1 μg/mL H-33342 (both from Sigma, Steinheim, Germany) and observed using two different channels on the Cellomics ArrayScan VTI imaging microscope (Thermo Fisher, Pittsburgh, PA, USA) to assess viability and migration. For the migration, four pictures were taken in the region of interest (ROI) (5× magnification objective). Migration data were obtained using the software “Ringassay” (http://invitrotox.uni-konstanz.de/ (accessed on 3 November 2024)), which can estimate the previously cell-free area and count the number of H-33342 and calcein-AM double-positive cells. Cell viability was assessed by taking four pictures outside of the ROI with 10× magnification objective. Viable cells were defined as H-33342 and calcein-AM double-positive cells and calculated by an automatic algorithm of the ArrayScan VTI 700 Series software as described earlier. […] Each plate included wells for testing of negative (0.1% DMSO solvent) and positive controls (200 nM cytochalasin D) in addition to the wells for blinded samples. The data from control wells were used as acceptance criteria of the assay. […] Renormalization of the concentration–response curves was performed after a visual inspection that the two lowest test-concentration data points are in the no-effect range. The average response (relative to solvent control) of the lowest two test concentrations was calculated, and all other data points of the same curve were divided by this average value. The calculations of the benchmark concentrations 10 for viability (BMC10 (V)) and 25 for migration (BMC25 (M)) were performed with the online available BMC software (http://invitrotox.uni-konstanz.de/ (accessed on 4 November 2024)).

[1] = cited from earlier work
[2] = Estimate of maximal tolerable/acceptable exposure; design: species or system human; details: per day; LOEL with safety factor of 100, same as ADI of FAO/WHO 2012 report
Procedure: An estimate of the maximal external exposure was obtained as the next step of the study. We used two different approaches, based on (i) setting the acceptable daily intake as the upper limit and (ii) referring to the no-observed-effect level (NOEL) in an animal study (detailed in Figure 7A). We concluded from both approaches that a plausible upper daily tolerated threshold is 0.09 mg/kg. This value was used in a physiologically based kinetic (PBK) model to obtain concentration time data for different tissues in mothers and their fetus. Assuming a repeated daily exposure, the maximal maternal plasma concentrations were predicted to be in the 200–300 nM range. The maximal steady-state fetal brain concentrations were predicted to be in the 100 nM range (5th and 95th percentiles for exposure in the population of 100 subjects were 60–190 nM) (Figure 7B). […] Next, we used some advanced assays to obtain a better understanding of the potency range of picoxystrobin when used in different experimental setups. […]
Figure 7 Comparison of internal exposure estimates and primary effect potency. […] Data are expressed as means ± SEM from three independent biological experiments. ^# LOEL of animal study is based on a 90-day dog study (REF: https://www.fao.org/3/i3111e/i3111e.pdf (accessed on 15 June 2024)). *^,§ There is also an old (no longer valid) value by EFSA of 0.043 mg/kg/day from the year 2004 [71]. […]

CO/C=C(/C(=O)OC)c1ccccc1COc1cccc(C(F)(F)F)n1 [Picoxystrobin, picoxystrobin]
Migration (neural crest cells (NCC); Pre-Screen 1, single concentration 1:1000 of stock, in most cases 100 μM): 65 % of control | effect of 1% HSA on inhibition of NCC migration (neural crest cells (NCC); medium supplemented with 1% human serum albumin): did not alter the effect | BMC25 (M) (neural crest cells (NCC); migration, primary screen, 24 h exposure): 1e-05 M | Ratio (neural crest cells (NCC)): 6.0 | Ratio (neural crest cells (NCC); listed as BC2): 6.1 | blood to plasma ratio [1]: 0.71 | fraction unbound in blood plasma [1]: 0.0127 | upper daily tolerated threshold / estimate of max. exposure [tolerable/acceptable] [2]: 0.09 mg/kg
